From patent US20060046278A1, “Methods and kits for determining metabolic stability of compounds” (Qualyst, Inc., priority 2004, published 2006)

Columns and labels:
CYP2D6 [1] = target: T1, CYP2D6 (Homo sapiens, UniProt P10635); conditions: degree of metabolism by parent compound remaining after 10 min; 5 μM substrate, recombinant CYP2D6 microsomes, 1 mM NADPH, 37° C.
Description: Test compounds were prepared as 20 mM stock solutions in DMSO and diluted to 2 mM in acetonitrile. […] Unless otherwise specified, reaction mixtures consisted of 5 μM substrate, 30 pmol/mL recombinant CYP2D6 microsomes (GenTest™) and 1 mM NADPH prepared in buffer to a final volume of 750 μl. Reactions were performed at 37° C. in 1.2 mL marsh tubes. Reactions were incubated for 3 min prior to adding NADPH. Aliquots of the reaction mixture (100 μL) were removed at 0 (immediately after the addition of NADPH), 5, 10, 20 and 30 min and quenched with 200 μL of acetonitrile (containing 2.5 μM terfenadine). Samples were placed at −20° C. for 1 hr and centrifuged using a Thermo IEC Centra GP8R table top centrifuge (3,000 rpm for 10 min). The supernatant fraction was transferred to 500 μL 96-well blocks for LC-MS analysis.
LC-MS analysis was performed using a HPLC system consisting of a Shimadzu LC-10AD pump and Perkin Elmer Series 200 Autosampler coupled to an Applied Biosystems Sciex API 3000 triple-quadrapole mass spectrometer. Test compounds were separated on an Agilent ZORBAX® Bonus-RP column (30×2.1 mm, 3.5 μm particle size) maintained at 30° C. […] The column was equilibrated with 100% buffer A for 2 min between each run. The HPLC eluant was directly introduced into the mass spectrometer equipped with a Turbo Ionspray interface operated at 4500 V in the positive mode. […] Compounds were detected by single ion monitoring using the following parameters: declustering potential, 35 V; focusing potential, 200 V; exit potential, 10 V.

CYP2D6 [2] = target: T1, CYP2D6; conditions: 20 μM substrate; for CL rank order: degree of metabolism by rate of ROS-dependent CL production, reconstituted recombinant CYP2D6, 1 mM NADPH, 37° C.
Description: Stock solutions of NADPH were freshly prepared before each experiment in buffer. Test compounds were prepared as 20 mM stock solutions in DMSO and diluted to 2 mM in acetonitrile. […] Reactions were performed at 37° C. in 500 μL deep 96-well blocks. Reactions were incubated for 3 min prior to adding NADPH. Aliquots of the reaction mixture (10 μL) were removed at 0 (immediately after the addition of NADPH), 5,10, 20 and 30 min and quenched with 20 μL of acetonitrile and placed in 96-well polypropylene plates. ROS formation was quantified using a chemiluminescence reaction as described below.

T1 sequence (P10635 whole entry): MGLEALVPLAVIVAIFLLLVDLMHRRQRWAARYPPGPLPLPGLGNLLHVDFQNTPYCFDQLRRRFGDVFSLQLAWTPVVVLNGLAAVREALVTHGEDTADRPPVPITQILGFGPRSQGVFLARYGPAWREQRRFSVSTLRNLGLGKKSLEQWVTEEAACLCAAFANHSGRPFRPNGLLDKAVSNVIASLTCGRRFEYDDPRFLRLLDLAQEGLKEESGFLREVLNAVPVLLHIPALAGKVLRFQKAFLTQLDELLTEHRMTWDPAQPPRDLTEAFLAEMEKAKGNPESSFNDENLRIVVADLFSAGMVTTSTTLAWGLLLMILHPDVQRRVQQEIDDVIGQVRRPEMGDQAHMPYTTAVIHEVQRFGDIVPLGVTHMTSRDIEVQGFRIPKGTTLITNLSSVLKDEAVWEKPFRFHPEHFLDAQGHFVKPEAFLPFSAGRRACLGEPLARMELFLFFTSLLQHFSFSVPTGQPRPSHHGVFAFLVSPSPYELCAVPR

Row | Structure (SMILES) | LC-MS rank order (CYP2D6 [1]) | CL rank order (CYP2D6 [2]) | increase in the rate of CL production over background (no substrate) (CYP2D6 [2]; CYP2D6 reaction, 30 min time course)
1 | C=CCc1ccccc1OCC(O)CNC(C)C (stereo not drawn) [alprenolol] | 3 (high (less than 20% of parent compound remaining after 10 min)) | 3 (high (a rate of CL production above 800 Units/min)) | 
2 | CCC(C)n1ncn(-c2ccc(N3CCN(c4ccc(OCC5COC(Cn6cncn6)(c6ccc(Cl)cc6Cl)O5)cc4)CC3)cc2)c1=O (stereo not drawn) [itraconazole] | 1 (low (more than 75% of parent compound remaining after 10 min)) | 1 (low (a rate of CL production equal to or below that observed in the absence of substrate (400 Units/min))) | 
3 | COc1ccc([C@@H]2Sc3ccccc3N(CCN(C)C)C(=O)[C@@H]2OC(C)=O)cc1 [diltiazem] | 1 (low (more than 75% of parent compound remaining after 10 min)) | 1 (low (a rate of CL production equal to or below that observed in the absence of substrate (400 Units/min))) | 
4 | NC(=O)N1c2ccccc2C=Cc2ccccc21 [carbamazepine] | 1 (low (more than 75% of parent compound remaining after 10 min)) | 1 (low (a rate of CL production equal to or below that observed in the absence of substrate (400 Units/min))) | 
5 | COc1ccc2c(c1)[C@]13CCCC[C@@H]1[C@H](C2)N(C)CC3 [dextromethorphan] | 2 (moderate (between 20 and 75% of parent compound remaining after 10 min)) | 2 (moderate (a rate of CL production between 400 (background) and 800 CL Units/min)) | approximately two-fold
6 | COc1ccc(CCN2CCC(Nc3nc4ccccc4n3Cc3ccc(F)cc3)CC2)cc1 [astemizole] | 2 (moderate (between 20 and 75% of parent compound remaining after 10 min)) | 2 (moderate (a rate of CL production between 400 (background) and 800 CL Units/min)) | 
7 | O=C(CCCN1CCC(O)(c2cccc(C(F)(F)F)c2)CC1)c1ccc(F)cc1 [trifluperidol] | 1 (low (more than 75% of parent compound remaining after 10 min)) | 2 (moderate (a rate of CL production between 400 (background) and 800 CL Units/min)) | 
